Data: PMC11208559 (Scientific Reports, 2024)
In brackets after ≈: the same amount, converted by molar mass.

Legend:
CD-1 mice [1] = assay: 52 °C tail-flick assay, morphine anti-nociception after Hsp90 inhibitor treatment; type: in vivo; details: for naloxone reversibility of inhibitor-enhanced morphine pain relief: 2 mg/kg naloxone i.p. 10 min; for A50 (morphine anti-nociceptive potency), tail flick, systemic inhibitor: 1 mg/kg inhibitor i.v., then 1–5.6 mg/kg morphine s.c., peak %MPE, 95% CI in parentheses; for effect of higher 10 mg/kg dose on morphine pain relief (tail flick): 10 mg/kg i.v. vs 1 mg/kg i.v.
Method: (§1) Pre-injection tail-flick baselines were determined in a 52 °C tail-flick assay with a 10-s cutoff time (method also reported in Ref.[13]). […] No animals were excluded from these studies.

physchem [2] = details: pH 6.8, aqueous buffer, thermodynamic from solid
[3] = 1 and 10 mg/kg i.v.
[4] = target: T1, human kappa opioid receptor (Homo sapiens, UniProt P41145); assay: Competition radioligand binding vs 3H-diprenorphine, kappa opioid receptor; details: up to a 10 μM concentration
T1 construct: membrane protein

physchem [5] = type: physicochemical
Method: Distribution coefficient (LogD) was determined by the method of Wilson et al.[30]. Briefly, 5 µL volumes of test compounds diluted in DMSO were added to a mixture of equal volumes of 50 mM phosphate buffer and 1-octanol. The compounds were assayed using a 50 nM concentration in order to limit compound precipitation and to ensure that the assay values were maintained within the dynamic range of the LC–MS/MS instrumentation. Samples were vortex mixed at 800 rpm for 24 h. Subsequent to centrifugation at 14,000 rpm for 30 min, 1 µL of each layer was analyzed by LC–MS/MS. LogD was calculated using the peak areas obtained from each layer.
LC − MS/MS analysis was conducted using an Agilent (Santa Clara, CA) 6460 triple quadrupole mass spectrometer coupled with an Agilent liquid chromatography (LC) system. The LC system consists of a binary pump, degasser, column heater, and autosampler. Chromatographic separation was performed on a Waters Atlantis T3 3 µm 3.0 × 50 mm analytical column using a ballistic gradient of mobile phase consisting of 0.1% formic acid in water (A) and 0.1% formic acid in acetonitrile (B) at a flow rate of 0.75 mL/min. The mobile phase was heated to a temperature of 45 °C.

[6] = target: T2, human delta opioid receptor (Homo sapiens, UniProt P41143); assay: Competition radioligand binding vs 3H-diprenorphine, delta opioid receptor; details: up to a 10 μM concentration
T2 construct: membrane protein

CD-1 mice [7] = assay: Post-surgical paw incision, mechanical allodynia (von Frey), morphine anti-nociception; type: in vivo; details: 24 h
Method: Mechanical thresholds were determined prior to surgery using calibrated von Frey filaments (Ugo Basile, Varese, Italy) with the up-down method and four measurements after the first response per mouse as in Ref.[27] and our previously published work (e.g. Ref.[28]). The mice were housed in a homemade apparatus with Plexiglas walls and ceiling and a wire mesh floor (3-inch wide 4-inch long 3-inch high with 0.25-inch wire mesh). The surgery was then performed by anesthesia with ~ 2% isoflurane in standard air, preparation of the left plantar hind paw with iodine and 70% ethanol, and a 5-mm incision made through the skin and fascia with a no. 11 scalpel. The muscle was elevated with curved forceps leaving the origin and insertion intact, and the muscle was split lengthwise using the scalpel. The wound was then closed with 5–0 polyglycolic acid sutures. Mice were then injected with inhibitor or Vehicle control and left to recover for 24 h. Our intrathecal (i.t.) injection protocol is reported in Refs.[13],[29]; briefly, the injection was made in awake and restrained animals with a 10 μL Hamilton syringe and 30 g needle (5–7 μL volume) between the L5-L6 vertebrae at a 45° angle, with placement validated by tail twitch. Since the injection was made through skin with no incision or other surgical intervention, repeated injection protocols were performed the same way. The next day, the mechanical threshold was again determined as described above. […] . No animals were excluded from these studies.

in vivo = details: CD-1, mouse, iv
in vitro [8] = type: in vitro ADME; details: male, human, microsomes
Method: (§2) Metabolic stability of lead compounds was assessed in vitro by the method of Di et al.[32]. Briefly, mouse liver microsomes (Corning Life Sciences, Woburn, MA) were isolated from CD-1 mice (male mice, 8 − 10 weeks of age). Assays were conducted using 0.123 mg/mL protein concentration (total protein concentration in the microsomal solution) and 1.0 μM drug concentration under incubation conditions of 37 °C. Metabolic stability was determined following 0, 5, 15, 30, and 60 min of incubation time. The samples were analyzed by reversed phase LC using a triple quadrupole mass spectrometer. Compound specific transitions of parent ion to product ion were monitored and percent remaining calculated based on peak area of 5 − 60 min time points (relative to time zero). Half-life calculations were determined using the formula t½ = − ln(2)/k, where k (min^−1) is the turnover rate constant (the slope) estimated from a log − linear regression of the percentage compound remaining versus time.
Metabolic stability of the compounds in human liver microsomes was determined by the method described above using pooled human liver microsome preparations from 20 male donors (Corning Life Sciences, Woburn, MA). Assays were conducted as described above and the in vitro half-life of the compounds was calculated. […]

in vitro [9] = type: in vitro ADME, CD-1 mice; details: male, CD-1, mouse, microsomes
Method: as §2
LC − MS/MS analysis was conducted using an Agilent (Santa Clara, CA) 6460 triple quadrupole mass spectrometer coupled with an Agilent liquid chromatography (LC) system. The LC system consists of a binary pump, degasser, column heater, and autosampler. […]

human mu opioid receptor = target: T3, human mu opioid receptor (Homo sapiens, UniProt P35372); type: binding; details: up to a 10 μM concentration
T3 construct: membrane protein

CD-1 mice [10] = assay: Morphine anti-nociceptive tolerance and tolerance rescue (tail flick); type: in vivo; details: 3 days twice daily 10 mg/kg morphine s.c.; 1 mg/kg i.v. on day 3, 24 h; 10 mg/kg morphine s.c.; tail flick
Method: as §1

CD-1 mice [11] = details: mouse, in vivo
[12] = 1 mg/kg i.v., 24 h, 3.2 mg/kg morphine s.c., tail flick
[13] = 24 h, then 3.2 mg/kg morphine s.c.

Row | Compound | naloxone reversibility of inhibitor-enhanced morphine pain relief (CD-1 mice [1]; [12]) | A50 (morphine anti-nociceptive potency), tail flick, systemic inhibitor (CD-1 mice [1]; 24 h) | effect of higher 10 mg/kg dose on morphine pain relief (tail flick) (CD-1 mice [1]; [13]) | binding to kappa opioid receptor (competition vs 3H-diprenorphine) [4] | logD at 24 h (physchem [5]) | binding to delta opioid receptor (competition vs 3H-diprenorphine) [6] | half-life at 1 µM (in vitro [8]) [min] | half-life at 1 µM (in vitro [9]) [min] | binding to mu opioid receptor (competition vs 3H-diprenorphine) (human mu opioid receptor) | rescue of established morphine tolerance, systemic inhibitor (CD-1 mice [10]) | effect on respiratory activity before and after morphine (CD-1 mice [11]) | further results
1 | COC(=O)c1c(O)cc(O)c(Cl)c1CCc1ccccc1Cc1ccc(F)cc1 [KUNG65] | fully naloxone-reversible | 1.9 (1.4–2.3) mg/kg | elevated morphine pain relief, it did so less than a 1 mg/kg dose | no binding | 3.3 | no binding | 144 | 32 | no binding | rescued established tolerance | no effect on respiration before or after morphine injection | effect on morphine tail flick anti-nociception 48 h after treatment (CD-1 mice [1]; 1 mg/kg i.v., 48 h, then 3.2 mg/kg morphine s.c.): no effect; effect of spinal cord Grp94 CRISPR knockdown on benefit of systemic inhibitor (CD-1 mice [1]; Grp94 CRISPR i.t., 1 mg/kg i.v. on day 9, 24 h, 3.2 mg/kg morphine s.c., tail flick): abolished the benefit; solubility at 24 h (physchem [2]): 0.074 µM (≈ 0.0307 µg/mL); exposure in the spinal cord [3]: very low exposure; A50 (morphine anti-nociceptive potency), paw incision, systemic inhibitor (CD-1 mice [7]; 1 mg/kg inhibitor i.v., then 1–3.2 mg/kg morphine s.c., peak %MPE, 95% CI in parentheses): 0.9 (0.5–1.2) mg/kg; AUC(0-inf) (in vivo; 1 mg/kg): 0.245 µM·h; Cmax (in vivo; 1 mg/kg): 418 nM; Tmax (in vivo; 1 mg/kg): 4.98 min; half-life (in vivo; 1 mg/kg): 36 min; AUC(0-inf) (in vivo; 10 mg/kg): 0.46 µM·h; Cmax (in vivo; 10 mg/kg): 1070 nM; Tmax (in vivo; 10 mg/kg): 4.98 min; half-life (in vivo; 10 mg/kg): 38.4 min
2 | Cc1ccc(Sc2cc(C(=O)N3Cc4ccccc4C3)ccc2O)cc1C [KUNA115] | – | – | – | – | – | – | – | – | – | – | – | effect on morphine tail flick anti-nociception, isoform-selective inhibitor i.t. (CD-1 mice [1]; 0.01 nmol i.t., 24 h, then 3.2 mg/kg morphine s.c.): significant anti-nociceptive elevation; effect of systemic Hsp90α inhibitor on morphine anti-nociception, paw incision (CD-1 mice [7]; 1 mg/kg i.v., then 3.2 mg/kg morphine s.c.): completely blocked anti-nociception
3 | CCCc1cc2cc(-n3nc(C)c4c3CC(C)(C)CC4=O)cc(N3CCC(O)CC3)c2c(=O)[nH]1 [KUNB106] | fully naloxone-reversible | 1.7 (1.1–2.3) mg/kg | less benefit than 1 mg/kg | did not find any binding | 2.26 | did not find any binding | 156 | 63 | did not find any binding | rescued established tolerance | no impact on respiratory activity before or after morphine | –
